US12319672B2, “Alpha-D-galactopyranoside derivatives” (Idorsia Pharmaceuticals Ltd, priority 2019, dated 2025)

Tests used:
[1] = molecular target: human Gal-3 (hGal-3) (Homo sapiens (Human), UniProt P17931); test: Competitive binding assay: binding of biotinylated hGal-3 to microplate-adsorbed asialofetuin (ASF); conditions: Activity on hGal-3; mean values of several measurements
How it was run: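 For hGal-1, a variant with all six cysteines replaced by serines is preferred. Either galectin, biotinylated at 300-1000 ng/mL, competes with compound for microplate-bound ASF over 3 h at 4° C; peroxidase/ABTS detection gives IC50, averaged.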

[2] = molecular target: human Gal-1 (hGal-1); test: Competitive binding assay: binding of biotinylated hGal-1 to microplate-adsorbed asialofetuin (ASF); conditions: Activities on hGal-1; mean values of several measurements
human Gal-1 (hGal-1), sequence (P09382 2-135 limits assumed): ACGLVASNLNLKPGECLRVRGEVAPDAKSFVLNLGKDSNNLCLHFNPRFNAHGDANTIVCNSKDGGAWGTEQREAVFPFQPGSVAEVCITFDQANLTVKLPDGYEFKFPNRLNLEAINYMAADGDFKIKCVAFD
How it was run: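 Spectrophotometric readout (streptavidin-peroxidase, ABTS) of biotinylated galectin retained on ASF-coated wells. Biotinylated hGal-1 or hGal-3, 300-1000 ng/mL, co-incubated with test compound 3 h at 4° C, then washed. Mean IC50 from repeat runs.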

human Gal-3 (hGal-3), sequence (P17931 whole entry): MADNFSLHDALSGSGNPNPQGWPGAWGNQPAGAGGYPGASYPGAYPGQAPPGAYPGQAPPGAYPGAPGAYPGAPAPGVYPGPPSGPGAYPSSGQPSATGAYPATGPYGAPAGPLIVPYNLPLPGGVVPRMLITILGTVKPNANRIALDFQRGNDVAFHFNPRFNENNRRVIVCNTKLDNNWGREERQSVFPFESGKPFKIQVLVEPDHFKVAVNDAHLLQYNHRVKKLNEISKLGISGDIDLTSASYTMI

| Compound | IC50 [1] [nM] | IC50 [2] [nM] |
| --- | --- | --- |
| CO[C@@H]1[C@@H](n2cc(-c3cc(F)c(F)c(F)c3)nn2)[C@@H](O)[C@@H](CO)O[C@@H]1Cc1cn(C2CCN(C(C)=O)CC2)nn1 [Example 4.06, 1-(4-(4-(((2R,3R,4S,5R,6R)-5-hydroxy-6-(hydroxymethyl)-3-methoxy-4-(4-(3,4,5-trifluorophenyl)-1H-1,2,3-triazol-1-yl)tetrahydro-2H-pyran-2-yl)methyl)-1H-1,2,3-triazol-1-yl)piperidin-1-yl)ethan-1-one] | 52 | 160 |
| CO[C@@H]1[C@@H](n2cc(-c3cc(F)c(F)c(F)c3)nn2)[C@@H](O)[C@@H](CO)O[C@@H]1Cc1cn(C2CCN(C(=O)NC(C)(C)C)CC2)nn1 [Example 4.08, N-(tert-butyl)-4-(4-(((2R,3R,4S,5R,6R)-5-hydroxy-6-(hydroxymethyl)-3-methoxy-4-(4-(3,4,5-trifluorophenyl)-1H-1,2,3-triazol-1-yl)tetrahydro-2H-pyran-2-yl)methyl)-1H-1,2,3-triazol-1-yl)piperidine-1-carboxamide] | 10 | 67 |
| CCCS(=O)(=O)N1CCC(n2cc(C[C@H]3O[C@H](CO)[C@H](O)[C@H](n4cc(-c5cc(F)c(F)c(F)c5)nn4)[C@H]3OC)nn2)CC1 [Example 4.09, (2R,3R,4S,5R,6R)-2-(hydroxymethyl)-5-methoxy-6-((1-(1-(propylsulfonyl)piperidin-4-yl)-1H-1,2,3-triazol-4-yl)methyl)-4-(4-(3,4,5-trifluorophenyl)-1H-1,2,3-triazol-1-yl)tetrahydro-2H-pyran-3-ol] | 13 | 100 |
| CO[C@@H]1[C@@H](n2cc(-c3cc(F)c(F)c(F)c3)nn2)[C@@H](O)[C@@H](CO)O[C@@H]1Cc1cn(C2CCN(S(=O)(=O)C(C)C)CC2)nn1 [Example 4.10, (2R,3R,4S,5R,6R)-2-(hydroxymethyl)-6-((1-(1-(isopropylsulfonyl)piperidin-4-yl)-1H-1,2,3-triazol-4-yl)methyl)-5-methoxy-4-(4-(3,4,5-trifluorophenyl)-1H-1,2,3-triazol-1-yl)tetrahydro-2H-pyran-3-ol] | 25 | 270 |
| CO[C@@H]1[C@@H](n2cc(-c3cc(F)c(F)c(F)c3)nn2)[C@@H](O)[C@@H](CO)O[C@H]1Cc1cn(C2CCN(C(=O)OC(C)(C)C)CC2)nn1 [Example 4.11, tert-butyl 4-(4-(((2S,3R,4S,5R,6R)-5-hydroxy-6-(hydroxymethyl)-3-methoxy-4-(4-(3,4,5-trifluorophenyl)-1H-1,2,3-triazol-1-yl)tetrahydro-2H-pyran-2-yl)methyl)-1H-1,2,3-triazol-1-yl)piperidine-1-carboxylate] | 1200 | 3030 |
| CO[C@@H]1[C@@H](n2cc(-c3cc(F)c(F)c(F)c3)nn2)[C@@H](O)[C@@H](CO)O[C@H]1Cc1cn(C2CCN(C(C)=O)CC2)nn1 [Example 4.12, 1-(4-(4-(((2S,3R,4S,5R,6R)-5-hydroxy-6-(hydroxymethyl)-3-methoxy-4-(4-(3,4,5-trifluorophenyl)-1H-1,2,3-triazol-1-yl)tetrahydro-2H-pyran-2-yl)methyl)-1H-1,2,3-triazol-1-yl)piperidin-1-yl)ethan-1-one] | 700 | 3040 |
| CO[C@@H]1[C@@H](n2cc(-c3cc(F)c(F)c(F)c3)nn2)[C@@H](O)[C@@H](CO)O[C@@H]1Cc1cn(C2CCN(C(=O)OCc3ccccc3)CC2)nn1 [Example 4.13, benzyl 4-(4-(((2R,3R,4S,5R,6R)-5-hydroxy-6-(hydroxymethyl)-3-methoxy-4-(4-(3,4,5-trifluorophenyl)-1H-1,2,3-triazol-1-yl)tetrahydro-2H-pyran-2-yl)methyl)-1H-1,2,3-triazol-1-yl)piperidine-1-carboxylate] | 17 | 340 |
| CO[C@@H]1[C@@H](n2cc(-c3cc(F)c(F)c(F)c3)nn2)[C@@H](O)[C@@H](CO)O[C@@H]1Cc1cn(C2CCN([S+]([O-])C(C)(C)C)CC2)nn1 (stereo partly drawn) [Example 4.19, (2R,3R,4S,5R,6R)-6-((1-(1-(RS-tert-butylsulfinyl)piperidin-4-yl)-1H-1,2,3-triazol-4-yl)methyl)-2-(hydroxymethyl)-5-methoxy-4-(4-(3,4,5-trifluorophenyl)-1H-1,2,3-triazol-1-yl)tetrahydro-2H-pyran-3-ol] | 34 | 1000 |

More lines, now with the values ahead:

| IC50 [1] [nM] | IC50 [2] [nM] | Compound |
| --- | --- | --- |
| 12 | 100 | CO[C@@H]1[C@@H](n2cc(-c3cc(F)c(F)c(F)c3)nn2)[C@@H](O)[C@@H](CO)O[C@@H]1Cc1cn(C2CCN(S(C)(=O)=O)CC2)nn1 [Example 4.07, (2R,3R,4S,5R,6R)-2-(hydroxymethyl)-5-methoxy-6-((1-(1-(methylsulfonyl)piperidin-4-yl)-1H-1,2,3-triazol-4-yl)methyl)-4-(4-(3,4,5-trifluorophenyl)-1H-1,2,3-triazol-1-yl)tetrahydro-2H-pyran-3-ol] |
| 36 | 3880 | CO[C@@H]1[C@@H](n2cc(-c3cc(F)c(F)c(F)c3)nn2)[C@@H](O)[C@@H](CO)O[C@@H]1Cc1cn(C2CCSCC2)nn1 [Example 4.14, (2R,3R,4S,5R,6R)-2-(hydroxymethyl)-5-methoxy-6-((1-(tetrahydro-2H-thiopyran-4-yl)-1H-1,2,3-triazol-4-yl)methyl)-4-(4-(3,4,5-trifluorophenyl)-1H-1,2,3-triazol-1-yl)tetrahydro-2H-pyran-3-ol] |
| 210 | 4900 | CO[C@@H]1[C@@H](n2cc(-c3cc(F)c(F)c(F)c3)nn2)[C@@H](O)[C@@H](CO)O[C@@H]1Cc1cn(C2CC[S+]([O-])CC2)nn1 (stereo partly drawn) [Example 4.15, 4-(4-(((2R,3R,4S,5R,6R)-5-hydroxy-6-(hydroxymethyl)-3-methoxy-4-(4-(3,4,5-trifluorophenyl)-1H-1,2,3-triazol-1-yl)tetrahydro-2H-pyran-2-yl)methyl)-1H-1,2,3-triazol-1-yl)tetrahydro-2H-thiopyran 1-oxide] |
| 35 | 670 | CO[C@@H]1[C@@H](n2cc(-c3cc(F)c(F)c(F)c3)nn2)[C@@H](O)[C@@H](CO)O[C@@H]1Cc1cn(C2CCS(=O)(=O)CC2)nn1 [Example 4.16, 4-(4-(((2R,3R,4S,5R,6R)-5-hydroxy-6-(hydroxymethyl)-3-methoxy-4-(4-(3,4,5-trifluorophenyl)-1H-1,2,3-triazol-1-yl)tetrahydro-2H-pyran-2-yl)methyl)-1H-1,2,3-triazol-1-yl)tetrahydro-2H-thiopyran 1,1-dioxide] |
| 25 | 170 | CO[C@@H]1[C@@H](n2cc(-c3cc(F)c(F)c(F)c3)nn2)[C@@H](O)[C@@H](CO)O[C@@H]1Cc1cn(C2CCS(=N)(=O)CC2)nn1 (stereo partly drawn) [Example 4.17, 4-(4-(((2R,3R,4S,5R,6R)-5-hydroxy-6-(hydroxymethyl)-3-methoxy-4-(4-(3,4,5-trifluorophenyl)-1H-1,2,3-triazol-1-yl)tetrahydro-2H-pyran-2-yl)methyl)-1H-1,2,3-triazol-1-yl)-1-iminohexahydro-1l6-thiopyran 1-oxide] |
| 57 | 240 | CN=S1(=O)CCC(n2cc(C[C@H]3O[C@H](CO)[C@H](O)[C@H](n4cc(-c5cc(F)c(F)c(F)c5)nn4)[C@H]3OC)nn2)CC1 (stereo partly drawn) [Example 4.18, 4-(4-(((2R,3R,4S,5R,6R)-5-hydroxy-6-(hydroxymethyl)-3-methoxy-4-(4-(3,4,5-trifluorophenyl)-1H-1,2,3-triazol-1-yl)tetrahydro-2H-pyran-2-yl)methyl)-1H-1,2,3-triazol-1-yl)-1-(methylimino)hexahydro-1l6-thiopyran 1-oxide] |
